Assays:
[1] = tested on: A549; experiment: Cytotoxicity against human A549 cells incubated for 72 hrs by CCK8 assay; type: functional, cell-based; details: A549, 72 h
[2] = tested on: MDA-MB-231; experiment: Cytotoxicity against human MDA-MB-231 cells incubated for 72 hrs by CCK8 assay; type: functional, cell-based; details: MDA-MB-231, 72 h
[3] = tested on: HepG2; experiment: Cytotoxicity against human HepG2 cells incubated for 72 hrs by CCK8 assay; type: functional, cell-based; details: HepG2, 72 h
[4] = tested on: MDA-MB-231; experiment: Induction of apoptosis in human MDA-MB-231 cells assessed as late apoptotic cells at 15 uM incubated for 24 hrs by Annexin V-FITC/PI staining based flow cytometry (reference value: 3.36 %); type: functional
[5] = tested on: MDA-MB-231; experiment: Induction of apoptosis in human MDA-MB-231 cells assessed as necrotic cells at 17.5 uM incubated for 48 hrs by Annexin V-FITC/PI staining based flow cytometry (reference value: 0.33 %); type: functional
[6] = tested on: MDA-MB-231; experiment: Induction of mitochondrial dysfunction in human MDA-MB-231 cells assessed as cell with low mitochondrial membrane potential at 20 uM incubated for 24 hrs by JC-1 staining based flow cytometry (reference value: 3.68 %); type: functional
[7] = tested on: MDA-MB-231; experiment: Induction of apoptosis in human MDA-MB-231 cells assessed as late apoptotic cells at 15 uM incubated for 48 hrs by Annexin V-FITC/PI staining based flow cytometry (reference value: 2.79 %); type: functional
[8] = tested on: MDA-MB-231; experiment: Induction of apoptosis in human MDA-MB-231 cells assessed as late apoptotic cells at 17.5 uM incubated for 48 hrs by Annexin V-FITC/PI staining based flow cytometry (reference value: 2.79 %); type: functional
[9] = tested on: MDA-MB-231; experiment: Induction of apoptosis in human MDA-MB-231 cells assessed as increase in cleaved caspase-9 level incubated for 24 to 48 hrs by Western blot analysis; type: functional, cell-based; details: dose <= 20.0 µM, time 24-48 hrs
[10] = tested on: MDA-MB-231; experiment: Induction of apoptosis in human MDA-MB-231 cells assessed as necrotic cells at 20 uM incubated for 24 hrs by Annexin V-FITC/PI staining based flow cytometry (reference value: 1.06 %); type: functional
[11] = tested on: MDA-MB-231; experiment: Induction of apoptosis in human MDA-MB-231 cells assessed as necrotic cells at 17.5 uM incubated for 24 hrs by Annexin V-FITC/PI staining based flow cytometry (reference value: 1.06 %); type: functional
[12] = tested on: MDA-MB-231; experiment: Induction of mitochondrial dysfunction in human MDA-MB-231 cells assessed as cell with low mitochondrial membrane potential at 20 uM incubated for 48 hrs by JC-1 staining based flow cytometry (reference value: 2.50 %); type: functional
[13] = tested on: MDA-MB-231; experiment: Induction of apoptosis in human MDA-MB-231 cells assessed as necrotic cells at 15 uM incubated for 24 hrs by Annexin V-FITC/PI staining based flow cytometry (reference value: 1.06 %); type: functional
[14] = tested on: MDA-MB-231; experiment: Induction of mitochondrial dysfunction in human MDA-MB-231 cells assessed as cell with low mitochondrial membrane potential at 17.5 uM incubated for 24 hrs by JC-1 staining based flow cytometry (reference value: 3.68 %); type: functional
[15] = tested on: MDA-MB-231; experiment: Induction of apoptosis in human MDA-MB-231 cells assessed as early apoptotic cells at 20 uM incubated for 24 hrs by Annexin V-FITC/PI staining based flow cytometry (reference value: 7.39 %); type: functional
[16] = tested on: MDA-MB-231; experiment: Induction of apoptosis in human MDA-MB-231 cells assessed as viable cells at 15 uM incubated for 24 hrs by Annexin V-FITC/PI staining based flow cytometry (reference value: 88.2 %); type: functional; details: read-out: Activity
[17] = tested on: MDA-MB-231; experiment: Induction of apoptosis in human MDA-MB-231 cells assessed as increase in cleaved caspase-9 level upto 20 uM by Western blot analysis; type: functional, cell-based; details: time 24-48 hrs, TDE = time-dependent effect
[18] = tested on: MDA-MB-231; experiment: Induction of mitochondrial dysfunction in human MDA-MB-231 cells assessed as cell with low mitochondrial membrane potential at 15 uM incubated for 48 hrs by JC-1 staining based flow cytometry (reference value: 2.50 %); type: functional
[19] = tested on: MDA-MB-231; experiment: Induction of apoptosis in human MDA-MB-231 cells assessed as early apoptotic cells at 20 uM incubated for 48 hrs by Annexin V-FITC/PI staining based flow cytometry (reference value: 5.72 %); type: functional
[20] = tested on: MDA-MB-231; experiment: Induction of apoptosis in human MDA-MB-231 cells assessed as necrotic cells at 15 uM incubated for 48 hrs by Annexin V-FITC/PI staining based flow cytometry (reference value: 0.33 %); type: functional
[21] = tested on: MDA-MB-231; experiment: Induction of apoptosis in human MDA-MB-231 cells assessed as late apoptotic cells at 17.5 uM incubated for 24 hrs by Annexin V-FITC/PI staining based flow cytometry (reference value: 3.36 %); type: functional
[22] = tested on: MDA-MB-231; experiment: Induction of apoptosis in human MDA-MB-231 cells assessed as late apoptotic cells at 20 uM incubated for 48 hrs by Annexin V-FITC/PI staining based flow cytometry (reference value: 2.79 %); type: functional
[23] = tested on: MDA-MB-231; experiment: Induction of apoptosis in human MDA-MB-231 cells assessed as late apoptotic cells at 20 uM incubated for 24 hrs by Annexin V-FITC/PI staining based flow cytometry (reference value: 3.36 %); type: functional
[24] = tested on: MDA-MB-231; experiment: Induction of apoptosis in human MDA-MB-231 cells assessed as necrotic cells at 20 uM incubated for 48 hrs by Annexin V-FITC/PI staining based flow cytometry (reference value: 0.33 %); type: functional
[25] = tested on: MDA-MB-231; experiment: Induction of apoptosis in human MDA-MB-231 cells assessed as early apoptotic cells at 15 uM incubated for 24 hrs by Annexin V-FITC/PI staining based flow cytometry (reference value: 7.39 %); type: functional
[26] = tested on: MDA-MB-231; experiment: Induction of cell cycle arrest at G2/M phase in human MDA-MB-231 cells at 20 uM incubated for 12 to 24 hrs by PI/RNase staining based flow cytometry relative to control; type: functional; details: time 12-24 hrs
[27] = tested on: MDA-MB-231; experiment: Induction of apoptosis in human MDA-MB-231 cells assessed as viable cells at 17.5 uM incubated for 24 hrs by Annexin V-FITC/PI staining based flow cytometry (reference value: 88.2 %); type: functional; details: read-out: Activity
[28] = tested on: MDA-MB-231; experiment: Induction of apoptosis in human MDA-MB-231 cells assessed as viable cells at 20 uM incubated for 24 hrs by Annexin V-FITC/PI staining based flow cytometry (reference value: 88.2 %); type: functional; details: read-out: Activity
[29] = tested on: MDA-MB-231; experiment: Induction of mitochondrial dysfunction in human MDA-MB-231 cells assessed as cell with low mitochondrial membrane potential at 17.5 uM incubated for 48 hrs by JC-1 staining based flow cytometry (reference value: 2.50 %); type: functional
[30] = tested on: MDA-MB-231; experiment: Induction of apoptosis in human MDA-MB-231 cells assessed as viable cells at 20 uM incubated for 48 hrs by Annexin V-FITC/PI staining based flow cytometry (reference value: 91.2 %); type: functional; details: read-out: Activity
[31] = tested on: MDA-MB-231; experiment: Induction of apoptosis in human MDA-MB-231 cells assessed as viable cells at 15 uM incubated for 48 hrs by Annexin V-FITC/PI staining based flow cytometry (reference value: 91.2 %); type: functional; details: read-out: Activity
[32] = tested on: MDA-MB-231; experiment: Induction of cell cycle arrest at G2/M phase in human MDA-MB-231 cells incubated for 12 to 24 hrs by PI/RNase staining based flow cytometry; type: functional; details: dose <= 20.0 µM, time 12-24 hrs
[33] = tested on: MDA-MB-231; experiment: Induction of apoptosis in human MDA-MB-231 cells assessed as viable cells at 17.5 uM incubated for 48 hrs by Annexin V-FITC/PI staining based flow cytometry (reference value: 91.2 %); type: functional; details: read-out: Activity
[34] = tested on: MDA-MB-231; experiment: Induction of mitochondrial dysfunction in human MDA-MB-231 cells assessed as cell with low mitochondrial membrane potential at 15 uM incubated for 24 hrs by JC-1 staining based flow cytometry (reference value: 3.68 %); type: functional
[35] = tested on: MDA-MB-231; experiment: Induction of apoptosis in human MDA-MB-231 cells assessed as early apoptotic cells at 15 uM incubated for 48 hrs by Annexin V-FITC/PI staining based flow cytometry (reference value: 5.72 %); type: functional
[36] = tested on: MDA-MB-231; experiment: Induction of apoptosis in human MDA-MB-231 cells assessed as early apoptotic cells at 17.5 uM incubated for 24 hrs by Annexin V-FITC/PI staining based flow cytometry (reference value: 7.39 %); type: functional
[37] = tested on: MDA-MB-231; experiment: Induction of apoptosis in human MDA-MB-231 cells assessed as early apoptotic cells at 17.5 uM incubated for 48 hrs by Annexin V-FITC/PI staining based flow cytometry (reference value: 5.72 %); type: functional

CC(=O)O[C@H]1C(=O)[C@@]2(C)[C@H]([C@H](OC(=O)c3ccccc3)[C@]3(O)C[C@H](OC(=O)[C@H](O)[C@@H](NC(=O)c4ccccc4)c4ccccc4)C(C)=C1C3(C)C)[C@]1(OC(C)=O)CO[C@@H]1C[C@@H]2O [PACLITAXEL]
IC50 [1]: 0.4 µM
IC50 [2]: 0.11 µM
IC50 [3]: 0.06 µM

COC(=O)C[C@]12C=C3C(=O)c4ccccc4O[C@@]3(CC1)[C@H]1C(=O)N(C3CCCCC3)C(=O)[C@H]12
IC50 [1]: > 50 µM
IC50 [2]: > 50 µM
IC50 [3]: > 50 µM

COC(=O)C[C@]12C=C3C(=O)c4ccccc4O[C@@]3(CC1)[C@H]1C(=O)N(c3ccc(OC)cc3)C(=O)[C@H]12
IC50 [1]: > 50 µM
IC50 [2]: > 50 µM
IC50 [3]: > 50 µM

COC(=O)C[C@]12C=C3C(=O)c4ccccc4O[C@@]3(CC1)[C@H]1C(=O)N(c3ccccc3)C(=O)[C@H]12
IC50 [1]: 41.9 µM
IC50 [2]: 30.5 µM
IC50 [3]: 23.6 µM

COC(=O)C[C@]12C=C3C(=O)c4cc(F)ccc4O[C@@]3(CC1)[C@H]1C(=O)N(c3ccc(C(F)(F)F)cc3)C(=O)[C@H]12
IC50 [1]: > 50 µM
IC50 [2]: > 50 µM
IC50 [3]: > 50 µM

COC(=O)C[C@]12C=C3C(=O)c4ccccc4O[C@@]3(CC1)[C@H]1C(=O)N(c3ccc(Br)cc3)C(=O)[C@H]12
IC50 [1]: 24.3 µM
IC50 [2]: 24.4 µM
IC50 [3]: 25.6 µM

COC(=O)C[C@]12C=C3C(=O)c4ccccc4O[C@@]3(CC1)[C@H]1C(=O)N(C(C)(C)C)C(=O)[C@H]12
IC50 [1]: > 50 µM
IC50 [2]: > 50 µM
IC50 [3]: > 50 µM

COC(=O)C[C@]12C=C3C(=O)c4ccccc4O[C@@]3(CC1)[C@H]1C(=O)N(Cc3ccccc3)C(=O)[C@H]12
IC50 [1]: > 50 µM
IC50 [2]: > 50 µM
IC50 [3]: > 50 µM

COC(=O)C[C@]12C=C3C(=O)c4ccccc4O[C@@]3(CC1)[C@H]1C(=O)N(c3ccc(C(F)(F)F)cc3)C(=O)[C@H]12
Activity [4]: 5.84%
Activity [5]: 1.38%
IC50 [1]: 19.3 µM
Activity [6]: 59.57%
Activity [7]: 7.51%
Activity [8]: 14.5%
Activity [9]: Dose-Dependent Effect
Activity [10]: 2.33%
Activity [11]: 1.7%
Activity [12]: 96.87%
Activity [13]: 0.98%
Activity [14]: 53%
Activity [15]: 18.8%
viability at 15 µM [16]: 84.2%
Activity [17]: Tde
Activity [18]: 70.23%
Activity [19]: 56.9%
Activity [20]: 0.7%
Activity [21]: 10.3%
Activity [22]: 15.2%
Activity [23]: 16.8%
Activity [24]: 1.87%
Activity [25]: 9.01%
Activity [26]: >15%
viability at 17.5 µM [27]: 72.8%
viability at 20 µM [28]: 62.1%
Activity [29]: 92.63%
viability at 20 µM [30]: 26%
viability at 15 µM [31]: 67.4%
Activity [32]: Dose-Dependent Effect
viability at 17.5 µM [33]: 40.7%
Activity [34]: 29.07%
IC50 [2]: 13 µM
Activity [35]: 24.4%
IC50 [3]: 15.9 µM
Activity [36]: 15.3%
Activity [37]: 43.4%

COC(=O)C[C@]12C=C3C(=O)c4ccccc4O[C@@]3(CC1)[C@H]1C(=O)NC(=O)[C@H]12
IC50 [1]: > 50 µM
IC50 [2]: > 50 µM
IC50 [3]: > 50 µM

COC(=O)C[C@]12C=C3C(=O)c4cc(F)ccc4O[C@@]3(CC1)[C@H]1C(=O)N(c3ccc(Br)cc3)C(=O)[C@H]12
IC50 [1]: > 50 µM
IC50 [2]: > 50 µM
IC50 [3]: > 50 µM

COC(=O)C[C@]12C=C3C(=O)c4cccc(C)c4O[C@@]3(CC1)[C@H]1C(=O)N(c3ccc(Br)cc3)C(=O)[C@H]12
IC50 [1]: 29.1 µM
IC50 [2]: 23.4 µM
IC50 [3]: 22.5 µM

COC(=O)C[C@]12C=C3C(=O)c4ccccc4O[C@@]3(CC1)[C@H]1C(=O)N(C)C(=O)[C@H]12
IC50 [1]: 37.2 µM
IC50 [2]: 37.6 µM
IC50 [3]: 16.7 µM

COC(=O)C[C@]12C=C3C(=O)c4cccc(C)c4O[C@@]3(CC1)[C@H]1C(=O)N(c3ccc(C(F)(F)F)cc3)C(=O)[C@H]12
IC50 [1]: 40.1 µM
IC50 [2]: 27 µM
IC50 [3]: 32.9 µM

— ChEMBL document CHEMBL5550102, “Caged xanthone derivatives to promote mitochondria-mediated apoptosis in breast cancer cells” (Bioorg Med Chem, 2024)
